Experimental data published in patent US20060178424A1, “Preventing atrial fibrillation (af) with the use of stain drugs” (priority 2003, published 2006).
Entries after “also recorded” stand apart in the source; their conditions may differ.

What was measured:
[1] = system: atrial tachycardia-induced remodeling; settings: dog, cited from earlier work; for Prevention of effects of 1-week atrial tachycardia: literature refs 7-9
[2] = General properties (body weight, hemodynamic variables) at open-chest study; assay type: in vivo, dog; settings: mean±SEM; for Body weight: ATP with oral treatment
Description: (§1) Unipolar leads were inserted through jugular veins into the right ventricular (RV) apex and right atrial (RA) appendage under fluoroscopic guidance and connected to pacemakers (Medtronic) in subcutaneous pockets in the neck. A bipolar electrode was also inserted into the RA for atrial stimulation and recording during serial electrophysiological study (EPS). AV block was created by radiofrequency catheter ablation to control ventricular response during atrial tachypacing (ATP) and the RV pacemaker was programmed to pace at 80 bpm.
(§2) Body temperature was maintained at 37° C., and a femoral artery and both femoral veins were cannulated for pressure monitoring and drug administration. A median sternotomy was performed, and bipolar electrodes were hooked to the RA and left atrial (LA) appendage for recording and stimulation. A programmable stimulator (Digital Cardiovascular Instruments) was used to deliver twice-threshold currents. […] AF duration was assessed as described above and AF vulnerability was determined as the percentage of atrial sites at which AF could be induced by single extrastimuli.

[3] = system: atrial tachypaced dogs (atrial tachycardia-induced remodeling); assay: Final open-chest electrophysiological study after atrial tachypacing; assay type: in vivo, dog
Description: as §1
(§3) After 24 hours for recovery, a baseline closed-chest EPS was performed under anesthesia with ketamine, diazepam, and isoflurane, and then ATP (400 bpm) was initiated. Closed-chest EPS was repeated at 2,4 and 7 days of ATP and a final open-chest EPS was performed on day 8 under anesthesia with morphine and α-chloralose.
as §2

[4] = system: atrial tachypaced dogs (atrial tachycardia-induced remodeling); assay: Serial closed-chest electrophysiological study during 7-day atrial tachypacing (400 bpm); assay type: in vivo, dog; settings: 7-day ATP, in words
Description: as §1, §3

| SMILES | Prevention of effects of 1-week atrial tachycardia [1] | Diastolic BP [2] [mm Hg] | HR (heart rate) [2] [bpm] | LAP (left atrial pressure) [2] [mm Hg] | LVEDP (left ventricular end-diastolic pressure) [2] [mm Hg] | LVSP (left ventricular systolic pressure) [2] [mm Hg] | Systolic BP [2] [mm Hg] | Body weight [2] [kg] | ERP values as a function of cycle length versus ATP-only dogs ([3]; RA appendage, final open-chest study, in words) | AF requiring cardioversion for termination, share of dogs ([3]; following ATP, ATP-only 57%) [%] | Effect on tachypacing-induced ERP shortening and AF promotion (remodeling) ([3]; one week of atrial tachypacing, in words) | Attenuation of ERP changes caused by 48-hour atrial tachycardia ([1]; Carnes et al) | Atrial tachycardia-induced AF promotion (AF duration progression) versus ATP-only [4] |
| --- | --- | --- | --- | --- | --- | --- | --- | --- | --- | --- | --- | --- | --- |
| CCCCc1oc2ccccc2c1C(=O)c1cc(I)c(OCCN(CC)CC)c(I)c1 [amiodarone] | prevent the effects of 1-week atrial tachycardia in the dog | – | – | – | – | – | – | – | – | – | – | – | – |
| COCC(=O)O[C@]1(CCN(C)CCCc2nc3ccccc3[nH]2)CCc2cc(F)ccc2[C@@H]1C(C)C [mibefradil] | prevent the effects of 1-week atrial tachycardia in the dog | – | – | – | – | – | – | – | – | – | – | – | – |
| CCC(C)(C)C(=O)O[C@H]1C[C@@H](C)C=C2C=C[C@H](C)[C@H](CC[C@@H]3C[C@@H](O)CC(=O)O3)[C@H]21 [simvastatin] | – | 60 ± 7 | 169 ± 6 | 8 ± 1 | 9 ± 1 | 127 ± 5 | 131 ± 4 | 29 ± 2 | – | – | – | – | – |
| O=C1O[C@H]([C@@H](O)CO)C(O)=C1O [vitamin C] | – | 41 ± 6 | 145 ± 9 | 5 ± 1 | 6 ± 1 | 107 ± 8 | 107 ± 8 | 32 ± 2 | No significant differences | 33 | unaffected; also recorded: not altered; also recorded: not shared; also recorded: not observed | effectiveness | not significantly different from ATP-only dogs |
